Experimental data as given in ChEMBL document CHEMBL3608233, “Potent benzoazepinone γ-secretase modulators with improved bioavailability” (Bioorg Med Chem Lett, 2015).
Values after ≈ are worked out from the molar mass of the structure shown.

What was measured:
[1] = in vivo; settings: APP YAC Tg, mouse, plasma, 50 mg/kg
[2] = in vivo; settings: APP YAC Tg, mouse, brain, 50 mg/kg
[3] = in vitro; settings: pig, LLC-PK1
[4] = in vivo; settings: beagle, dog
[5] = in vivo; settings: Sprague-Dawley, rat, iv, 1 mg/kg
[6] = Ratio of drug level in brain to plasma in APP YAC Tg mouse model at 30 mg/kg after 6 hrs; format: ADME, organism-based; settings: brain and plasma, read-out: BPR
[7] = Drug metabolism in dog urine assessed as formation of methyl ester cleavage product; format: ADME, tissue-based, Canis lupus familiaris
[8] = in vitro; settings: dog, hepatocytes
[9] = Drug metabolism in dog urine assessed as oxidation of benzoazepinone; format: ADME, tissue-based, Canis lupus familiaris
[10] = Drug metabolism in dog urine assessed as oxidation of methylimidazole; format: ADME, tissue-based, Canis lupus familiaris
[11] = in vivo; settings: beagle, dog, iv
[12] = in vivo; settings: beagle, dog, iv; remark: listed apart in the source
[13] = in vivo; settings: Sprague-Dawley, rat, po, 2 mg/kg
[14] = in vivo; settings: Sprague-Dawley, rat
[15] = Drug uptake in brain of APP YAC Tg mouse model at 30 mg/kg after 6 hrs; format: ADME, organism-based; settings: read-out: Drug uptake
[16] = Drug metabolism in dog hepatocytes assessed as oxidation of benzoazepinone; format: ADME, cell-based, Canis lupus familiaris, Hepatocyte
[17] = physchem; settings: buffer, pH 2
[18] = physchem; settings: buffer, pH 7
[19] = species: Canis familiaris; settings: dog, in vivo, po, 0.5 mg/kg
[20] = Drug metabolism in dog hepatocytes assessed as formation of methyl ester cleavage product; format: ADME, cell-based, Canis lupus familiaris, Hepatocyte
[21] = Plasma concentration in APP YAC Tg mouse model at 30 mg/kg after 6 hrs; format: ADME, organism-based
[22] = in vitro; settings: rat, hepatocytes
[23] = in vitro; settings: human, hepatocytes
[24] = in vivo; settings: Sprague-Dawley, rat, iv, 1 mg/kg; remark: listed apart in the source
[25] = in vivo; settings: APP YAC Tg, mouse, plasma, 100 mg/kg
[26] = in vivo; settings: APP YAC Tg, mouse, brain, 100 mg/kg

Compound: Cc1cn(-c2ccc(-c3cn([C@H]4CCc5c(F)cccc5N(CC(F)(F)F)C4=O)nn3)cc2F)cn1
- concentration at 6 h [1]: 15 µM
- concentration at 6 h [2]: 6.8 µM

Compound: COc1cc(-c2cn([C@H]3CCc4c(F)cccc4N(CC(F)(F)F)C3=O)nn2)ccc1-n1cnc(C)c1
- Papp [3]: 21 ×10⁻⁶ cm/s
- half-life [4]: 42 min
- Vd [5]: 4.8 L/kg
- Kp at 6 h [6]: 0.3
- Drug metabolism [7]: metabolite_notdetected
- CLint scaled [8]: 400 mL/min/kg
- Drug metabolism [9]: metabolite_detected
- Drug metabolism [10]: metabolite_detected
- Vd [11]: 5.6 L/kg
- clearance [12]: 98 mL/min/kg
- bioavailability [13]: 100%
- half-life [14]: 48 min
- concentration at 6 h [15]: 1.6 µM
- Drug metabolism [16]: metabolite_detected
- solubility [17]: 170 µM (≈ 87.5 µg/mL)
- solubility [18]: 4.2 µM (≈ 2.16 µg/mL)
- F [19]: BLD
- Drug metabolism [20]: metabolite_notdetected
- concentration at 6 h [21]: 5.1 µM
- CLint scaled [22]: 210 mL/min/kg
- CLint scaled [23]: 94 mL/min/kg
- clearance [24]: 38 mL/min/kg

Compound: COc1cc(-c2cn([C@H]3CCc4c(F)cccc4N(CC(F)(F)F)C3=O)nn2)ccc1-n1cnc(C(F)(F)F)c1
- concentration at 6 h [25]: 4.5 µM
- concentration at 6 h [26]: 0.87 µM
